Source: the supplement of paper PMC10307832

Assays:
Assay in all cases: relative viability (nuclei count vs DMSO), 5 days (fraction); higher = more cells survive
NCI-H1563 = tested on: NCI-H1563
Procedure, shortened: (§1)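 Values are medians from duplicate plates. Each reflects relative viability, defined as the nuclei count of treated wells over that of vehicle wells. Lung cancer cell lines in 1536-well plates were pin-tool dosed one day after seeding with one drug alone or with a fixed anchor-drug dose plus five library-drug doses (not always all listed) in √10 steps, then fixed, stained and imaged at 4× after 5 days.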

NCI-H1650 = tested on: NCI-H1650
Procedure, shortened: as §1

NCI-H2085 = tested on: NCI-H2085
Procedure, shortened: as §1

EPLC-272H = tested on: EPLC-272H
Procedure, shortened: as §1

SW 900 = tested on: SW 900
Procedure, shortened: as §1

RERF-LC-KJ = tested on: RERF-LC-KJ
Procedure, shortened: as §1

NCI-H1793 = tested on: NCI-H1793
Procedure, shortened: as §1

ABC-1 = tested on: ABC-1
Procedure, shortened: as §1

LOU-NH91 = tested on: LOU-NH91
Procedure, shortened: as §1

NCI-H1993 = tested on: NCI-H1993
Procedure, shortened: as §1

NCI-H647 = tested on: NCI-H647
Procedure, shortened: as §1

NCI-H3122 = tested on: NCI-H3122
Procedure, shortened: as §1

NCI-H520 = tested on: NCI-H520
Procedure, shortened: as §1

201T = tested on: 201T
Procedure, shortened: as §1

EKVX = tested on: EKVX
Procedure, shortened: as §1

NCI-H2405 = tested on: NCI-H2405
Procedure, shortened: as §1

NCI-H2170 = tested on: NCI-H2170
Procedure, shortened: as §1

HCC-44 = tested on: HCC-44
Procedure, shortened: as §1

COR-L23 = tested on: COR-L23
Procedure, shortened: as §1

NCI-H2347 = tested on: NCI-H2347
Procedure, shortened: as §1

NCI-H2023 = tested on: NCI-H2023
Procedure, shortened: as §1

NCI-H1734 = tested on: NCI-H1734
Procedure, shortened: as §1

PC-14 = tested on: PC-14
Procedure, shortened: as §1

NCI-H441 = tested on: NCI-H441
Procedure, shortened: as §1

**Q.** With `C[C@@H]1CN(CC(=O)Nc2ccc3c(c2)Cc2cccc(-c4cc(=O)cc(N5CCOCC5)o4)c2S3)C[C@H](C)O1` + COc1cccc2cc(-c3nc([C@H]4CC[C@H](C(=O)O)CC4)n4ncnc(N)c34)[nH]c12 [OSI-027] (partner 0.5 µM) as the compound, how does the relative viability (NCI-H1563; first compound 0.04 µM) read?
**A.** 0.765

**Q.** And the relative viability (NCI-H1563; first compound 0.1265 µM)?
**A.** 0.71

**Q.** What about the relative viability (NCI-H1563; first compound 0.4 µM) of the same compound?
**A.** 0.689

**Q.** What about the relative viability (NCI-H1563; first compound 4 µM) of the same compound?
**A.** 0.72

**Q.** What about the relative viability (NCI-H1650; first compound 0.04 µM) of the same compound?
**A.** 0.761

**Q.** And the relative viability (NCI-H1650; first compound 0.1265 µM)?
**A.** 0.662

**Q.** What about the relative viability (NCI-H1650; first compound 0.4 µM) of the same compound?
**A.** 0.591

**Q.** And the relative viability (NCI-H1650; first compound 4 µM)?
**A.** 0.449

**Q.** And the relative viability (NCI-H2085; first compound 0.04 µM)?
**A.** 0.97

**Q.** What about the relative viability (NCI-H2085; first compound 0.1265 µM) of the same compound?
**A.** 0.611

**Q.** What about the relative viability (NCI-H2085; first compound 0.4 µM) of the same compound?
**A.** 0.476

**Q.** What about the relative viability (NCI-H2085; first compound 4 µM) of the same compound?
**A.** 0.477

**Q.** And the relative viability (EPLC-272H; first compound 0.04 µM)?
**A.** 0.279

**Q.** What about the relative viability (EPLC-272H; first compound 0.1265 µM) of the same compound?
**A.** 0.334

**Q.** And the relative viability (EPLC-272H; first compound 0.4 µM)?
**A.** 0.301

**Q.** And the relative viability (EPLC-272H; first compound 4 µM)?
**A.** 0.304

**Q.** What about the relative viability (SW 900; first compound 0.04 µM) of the same compound?
**A.** 0.455

**Q.** What about the relative viability (SW 900; first compound 0.1265 µM) of the same compound?
**A.** 0.573

**Q.** And the relative viability (SW 900; first compound 0.4 µM)?
**A.** 0.647

**Q.** And the relative viability (SW 900; first compound 4 µM)?
**A.** 0.45

**Q.** And the relative viability (RERF-LC-KJ; first compound 0.04 µM)?
**A.** 0.757

**Q.** What about the relative viability (RERF-LC-KJ; first compound 0.1265 µM) of the same compound?
**A.** 0.583

**Q.** What about the relative viability (RERF-LC-KJ; first compound 0.4 µM) of the same compound?
**A.** 0.534

**Q.** And the relative viability (RERF-LC-KJ; first compound 4 µM)?
**A.** 0.49

**Q.** What about the relative viability (NCI-H1793; first compound 0.04 µM) of the same compound?
**A.** 0.256

**Q.** And the relative viability (NCI-H1793; first compound 0.1265 µM)?
**A.** 0.272

**Q.** And the relative viability (NCI-H1793; first compound 0.4 µM)?
**A.** 0.247

**Q.** And the relative viability (NCI-H1793; first compound 4 µM)?
**A.** 0.149

**Q.** What about the relative viability (ABC-1; first compound 0.1265 µM) of the same compound?
**A.** 0.541

**Q.** And the relative viability (ABC-1; first compound 0.4 µM)?
**A.** 0.466

**Q.** What about the relative viability (ABC-1; first compound 4 µM) of the same compound?
**A.** 0.439

**Q.** What about the relative viability (LOU-NH91; first compound 0.04 µM) of the same compound?
**A.** 0.746

**Q.** What about the relative viability (LOU-NH91; first compound 0.1265 µM) of the same compound?
**A.** 0.711

**Q.** And the relative viability (LOU-NH91; first compound 0.4 µM)?
**A.** 0.724

**Q.** What about the relative viability (LOU-NH91; first compound 4 µM) of the same compound?
**A.** 0.7

**Q.** What about the relative viability (NCI-H1993; first compound 0.04 µM) of the same compound?
**A.** 0.578

**Q.** What about the relative viability (NCI-H1993; first compound 0.1265 µM) of the same compound?
**A.** 0.603

**Q.** What about the relative viability (NCI-H1993; first compound 0.4 µM) of the same compound?
**A.** 0.597

**Q.** What about the relative viability (NCI-H1993; first compound 4 µM) of the same compound?
**A.** 0.551

**Q.** And the relative viability (NCI-H647; first compound 0.04 µM)?
**A.** 0.519

**Q.** What about the relative viability (NCI-H647; first compound 0.1265 µM) of the same compound?
**A.** 0.669

**Q.** And the relative viability (NCI-H647; first compound 0.4 µM)?
**A.** 0.497

**Q.** What about the relative viability (NCI-H647; first compound 4 µM) of the same compound?
**A.** 0.558

**Q.** And the relative viability (NCI-H3122; first compound 0.04 µM)?
**A.** 0.994

**Q.** And the relative viability (NCI-H3122; first compound 0.1265 µM)?
**A.** 0.901

**Q.** And the relative viability (NCI-H3122; first compound 0.4 µM)?
**A.** 0.206

**Q.** What about the relative viability (NCI-H3122; first compound 4 µM) of the same compound?
**A.** 0.668

**Q.** What about the relative viability (NCI-H520; first compound 0.04 µM) of the same compound?
**A.** 0.272

**Q.** What about the relative viability (NCI-H520; first compound 0.1265 µM) of the same compound?
**A.** 0.227

**Q.** What about the relative viability (NCI-H520; first compound 0.4 µM) of the same compound?
**A.** 0.221

**Q.** And the relative viability (NCI-H520; first compound 4 µM)?
**A.** 0.264

**Q.** And the relative viability (201T; first compound 0.04 µM)?
**A.** 0.784

**Q.** And the relative viability (201T; first compound 0.1265 µM)?
**A.** 0.68

**Q.** What about the relative viability (201T; first compound 0.4 µM) of the same compound?
**A.** 0.683

**Q.** What about the relative viability (201T; first compound 4 µM) of the same compound?
**A.** 0.757

**Q.** And the relative viability (EKVX; first compound 0.04 µM)?
**A.** 0.713

**Q.** And the relative viability (EKVX; first compound 0.1265 µM)?
**A.** 0.676

**Q.** And the relative viability (EKVX; first compound 0.4 µM)?
**A.** 0.712

**Q.** What about the relative viability (EKVX; first compound 4 µM) of the same compound?
**A.** 0.618

**Q.** And the relative viability (NCI-H2405; first compound 0.04 µM)?
**A.** 0.632

**Q.** What about the relative viability (NCI-H2405; first compound 0.1265 µM) of the same compound?
**A.** 0.699

**Q.** What about the relative viability (NCI-H2405; first compound 0.4 µM) of the same compound?
**A.** 0.528

**Q.** What about the relative viability (NCI-H2405; first compound 4 µM) of the same compound?
**A.** 0.615

**Q.** What about the relative viability (NCI-H2170; first compound 0.04 µM) of the same compound?
**A.** 0.712

**Q.** What about the relative viability (NCI-H2170; first compound 0.1265 µM) of the same compound?
**A.** 0.685

**Q.** What about the relative viability (NCI-H2170; first compound 0.4 µM) of the same compound?
**A.** 0.581

**Q.** What about the relative viability (NCI-H2170; first compound 4 µM) of the same compound?
**A.** 0.707

**Q.** And the relative viability (HCC-44; first compound 0.04 µM)?
**A.** 0.328

**Q.** What about the relative viability (HCC-44; first compound 0.1265 µM) of the same compound?
**A.** 0.707

**Q.** What about the relative viability (HCC-44; first compound 0.4 µM) of the same compound?
**A.** 0.335

**Q.** And the relative viability (HCC-44; first compound 4 µM)?
**A.** 0.305

**Q.** What about the relative viability (COR-L23; first compound 0.04 µM) of the same compound?
**A.** 0.782

**Q.** And the relative viability (COR-L23; first compound 0.1265 µM)?
**A.** 0.776

**Q.** What about the relative viability (COR-L23; first compound 0.4 µM) of the same compound?
**A.** 0.73

**Q.** What about the relative viability (COR-L23; first compound 4 µM) of the same compound?
**A.** 0.717

**Q.** What about the relative viability (NCI-H2347; first compound 0.04 µM) of the same compound?
**A.** 0.465

**Q.** And the relative viability (NCI-H2347; first compound 0.1265 µM)?
**A.** 0.417

**Q.** What about the relative viability (NCI-H2347; first compound 0.4 µM) of the same compound?
**A.** 0.415

**Q.** And the relative viability (NCI-H2347; first compound 4 µM)?
**A.** 0.4

**Q.** What about the relative viability (NCI-H2023; first compound 0.04 µM) of the same compound?
**A.** 0.518

**Q.** And the relative viability (NCI-H2023; first compound 0.1265 µM)?
**A.** 0.387

**Q.** What about the relative viability (NCI-H2023; first compound 0.4 µM) of the same compound?
**A.** 0.306

**Q.** And the relative viability (NCI-H2023; first compound 4 µM)?
**A.** 0.197

**Q.** What about the relative viability (NCI-H1734; first compound 0.04 µM) of the same compound?
**A.** 0.655

**Q.** What about the relative viability (NCI-H1734; first compound 0.1265 µM) of the same compound?
**A.** 0.598

**Q.** What about the relative viability (NCI-H1734; first compound 0.4 µM) of the same compound?
**A.** 0.48

**Q.** What about the relative viability (NCI-H1734; first compound 4 µM) of the same compound?
**A.** 0.67

**Q.** What about the relative viability (PC-14; first compound 0.04 µM) of the same compound?
**A.** 1.02

**Q.** And the relative viability (PC-14; first compound 0.1265 µM)?
**A.** 0.761

**Q.** What about the relative viability (PC-14; first compound 0.4 µM) of the same compound?
**A.** 0.744

**Q.** What about the relative viability (PC-14; first compound 4 µM) of the same compound?
**A.** 0.653

**Q.** And the relative viability (NCI-H441; first compound 0.04 µM)?
**A.** 0.74

**Q.** What about the relative viability (NCI-H441; first compound 0.1265 µM) of the same compound?
**A.** 0.791

**Q.** And the relative viability (NCI-H441; first compound 0.4 µM)?
**A.** 0.398

**Q.** And the relative viability (NCI-H441; first compound 4 µM)?
**A.** 0.438
